Consider 49 compounds from publication PMC8707461, “In Vitro and In Vivo Inhibition of MATE1 by Tyrosine Kinase Inhibitors” (Pharmaceutics, 2021).

Data set [1] concerns the target T1, MATE1 (Homo sapiens, UniProt Q96FL8).
T1 sequence (Q96FL8 1-570): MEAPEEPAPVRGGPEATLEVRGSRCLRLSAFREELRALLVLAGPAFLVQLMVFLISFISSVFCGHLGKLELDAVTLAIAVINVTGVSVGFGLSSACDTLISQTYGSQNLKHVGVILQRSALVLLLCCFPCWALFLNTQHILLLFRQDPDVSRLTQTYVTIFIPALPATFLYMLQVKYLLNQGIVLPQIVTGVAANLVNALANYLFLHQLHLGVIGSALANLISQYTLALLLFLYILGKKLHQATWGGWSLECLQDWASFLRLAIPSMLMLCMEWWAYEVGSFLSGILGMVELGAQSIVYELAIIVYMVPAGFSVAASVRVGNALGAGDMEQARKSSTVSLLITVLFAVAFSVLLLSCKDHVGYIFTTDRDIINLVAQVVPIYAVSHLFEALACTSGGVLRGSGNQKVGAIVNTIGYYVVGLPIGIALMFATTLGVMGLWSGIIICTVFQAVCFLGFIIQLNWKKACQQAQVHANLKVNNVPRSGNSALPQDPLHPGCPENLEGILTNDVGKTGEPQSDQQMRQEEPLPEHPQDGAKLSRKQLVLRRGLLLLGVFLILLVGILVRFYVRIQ
The experiment in a line: [14C]TEA uptake in HEK293 cells overexpressing human MATE1. The settings on record: human. The method, then:
Uptake experiments in HEK293 cells overexpressing mouse (m) and human (h) OCT2 or MATE1 were performed with radiolabeled tetraethylammonium (TEA) as the model substrate, using standard methods in the presence or absence of TKIs. The cell culture and uptake conditions for cells expressing mMATE1 or hMATE1 were described previously. […] Since the inhibitory potential of various xenobiotics against OCT2 and MATE1 is dependent on preincubation with perpetrator drugs, a 15-min preincubation period with the TKIs was employed unless stated otherwise. All results were normalized to uptake values in cells transfected with an empty vector or DMSO-treated groups.
MATE1-overexpressed cells were pre-incubated with transport media containing 30 mM ammonium chloride for 20 min at 37 °C following previously published protocol (pH 7.4 for hMATE1 [17, 18, 19] and pH 8.4 for mMATE1 [20, 21]) to ensure interactions can be evaluated between outward-facing MATE1 and substrate uptake before adding inhibitors. Then, preincubation media was removed and cells were incubated with transport media (NH4Cl free) containing radiolabeled compounds. […] The uptake of TEA and metformin was measured by liquid scintillation counting, as described previously. For uptake studies involving platinum drugs, cells were collected with TrypLE, and the pellets were lysed overnight in 0.2% nitric acid. After sonication, total platinum levels were determined by flameless atomic absorption spectrometry.

The test system of data set [2] is MATE1. The following applies: publicly available information; ref FDA/EMA or supplement refs 1-8; cited from earlier work.
The mark [3] stands for this setting: HEK293 cells overexpressing human MATE1, pH 7.4, probe [14C]TEA (tetraethylammonium), 2 µM.

Turning to `CC#CC(=O)N1CCC[C@H]1c1nc(-c2ccc(C(=O)Nc3ccccn3)cc2)c2c(N)nccn12` [Acalabrutinib], the inhibition at 10 µM in data set [1] (setting [3]) turned out to be 43.3%.
Compound `CN(C)C/C=C/C(=O)Nc1cc2c(Nc3ccc(F)c(Cl)c3)ncnc2cc1O[C@H]1CCOC1` [Afatinib] yielded an inhibition at 10 µM in data set [1] (setting [3]) of 89.6%. Further, the half-maximal inhibitory concentration (IC50) in data set [2] is under 10 µM.
With `CCc1cc2c(cc1N1CCC(N3CCOCC3)CC1)C(C)(C)c1[nH]c3cc(C#N)ccc3c1C2=O` [Alectinib], in data set [1] (setting [3]), the inhibition at 10 µM was found to be 0%.
Still for that read-out and setting: next, `Cn1cc(-c2cc3c(N4CCN(c5ncc([C@@](C)(N)c6ccc(F)cc6)cn5)CC4)ncnn3c2)cn1` [Avapritinib]: 78.6%; `CNC(=O)c1ccccc1Sc1ccc2c(/C=C/c3ccccn3)n[nH]c2c1` [Axitinib]: 60.8%.
Same read-out and setting: next, `CCS(=O)(=O)N1CC(CC#N)(n2cc(-c3ncnc4[nH]ccc34)cn2)C1` [Baricitinib]: 55.5%.
Consider `Cn1cnc2c(F)c(Nc3ccc(Br)cc3F)c(C(=O)NOCCO)cc21` [Binimetinib], for which at 10 µM the inhibition in data set [1] (setting [3]) was 47.6%. In addition, in data set [2], the IC50 is over 50 µM.
With `COc1cc(N2CCC(N3CCN(C)CC3)CC2)ccc1Nc1ncc(Cl)c(Nc2ccccc2P(C)(C)=O)n1` [Brigatinib], the inhibition at 10 µM in data set [1] (pH 7.4) was 95.9%.
Compound `COc1cc2nccc(Oc3ccc(NC(=O)C4(C(=O)Nc5ccc(F)cc5)CC4)cc3)c2cc1OC` [Cabozantinib] gave an inhibition at 10 µM in data set [1] (setting [3]) of 95.8%. Besides, the IC50 in data set [2] was under 10 µM.
For the compound `CNC(=O)c1ccc(-c2cnc3ncc(Cc4ccc5ncccc5c4)n3n2)cc1F` [Capmatinib], the inhibition at 10 µM in data set [1] (setting [3]) is 99.7%.
Consider `Cc1cc(Nc2ncc(Cl)c(Nc3ccccc3S(=O)(=O)C(C)C)n2)c(OC(C)C)cc1C1CCNCC1` [Ceritinib], for which the inhibition at 10 µM in data set [1] (setting [3]) is 96.1%.
`O=C(c1ccc(F)c(F)c1Nc1ccc(I)cc1F)N1CC(O)([C@@H]2CCCCN2)C1` [Cobimetinib] displayed an inhibition at 10 µM in data set [1] (setting [3]) of 83.3%.
As to `C[C@@H](Oc1cc(-c2cnn(C3CCNCC3)c2)cnc1N)c1c(Cl)ccc(F)c1Cl` [Crizotinib], the inhibition at 10 µM in data set [1] (pH 7.4) is 96.8%. Besides, the IC50 in data set [2] was […].
Compound `CC(C)(C)c1nc(-c2cccc(NS(=O)(=O)c3c(F)cccc3F)c2F)c(-c2ccnc(N)n2)s1` [Dabrafenib] yielded an inhibition at 10 µM in data set [1] (setting [3]) of 72.1%.
In the case of `COc1cc2ncnc(Nc3ccc(F)c(Cl)c3)c2cc1NC(=O)/C=C/CN1CCCCC1` [Dacomitinib], testing at 10 µM in data set [1] (setting [3]) gave an inhibition of 91.6%.
Still for that read-out and setting: next, `COC(=O)N[C@@H](C)CNc1nccc(-c2cn(C(C)C)nc2-c2cc(Cl)cc(NS(C)(=O)=O)c2F)n1` [Encorafenib]: 66.1%; `CN1CCN(c2ccc(C(=O)Nc3n[nH]c4ccc(Cc5cc(F)cc(F)c5)cc34)c(NC3CCOCC3)c2)CC1` [Entrectinib]: 99.6%.
Compound `C#Cc1cccc(Nc2ncnc3cc(OCCOC)c(OCCOC)cc23)c1` [Erlotinib] displayed an inhibition at 10 µM in data set [1] (pH 7.4) of 87%. Further, the IC50 in data set [2] was […].
Regarding `Cc1cnc(Nc2ccc(OCCN3CCCC3)cc2)nc1Nc1cccc(S(=O)(=O)NC(C)(C)C)c1` [Fedratinib], 10 µM produced 98.6% inhibition in data set [1] (setting [3]).
The same measure, in the same setting: next, `COc1cc(Nc2ncc(F)c(Nc3ccc4c(n3)N(COP(=O)(O)O)C(=O)C(C)(C)O4)n2)cc(OC)c1OC` [Fostamatinib]: 40.2%; `COc1cc2ncnc(Nc3ccc(F)c(Cl)c3)c2cc1OCCCN1CCOCC1` [Gefitinib]: 91.8%; `CCc1nc(C(N)=O)c(Nc2ccc(N3CCC(N4CCN(C)CC4)CC3)c(OC)c2)nc1NC1CCOCC1` [Gilteritinib]: 96.7%.
On to `Cc1ccc(NC(=O)c2ccc(CN3CCN(C)CC3)cc2)cc1Nc1nccc(-c2cccnc2)n1` [Imatinib], for which, in data set [2], the IC50 was […].
With `CS(=O)(=O)CCNCc1ccc(-c2ccc3ncnc(Nc4ccc(OCc5cccc(F)c5)c(Cl)c4)c3c2)o1` [Lapatinib], the inhibition at 10 µM in data set [1] (pH 7.4) worked out at 38.7%. Moreover, the IC50 in data set [2] was over 10 µM.
Take `O=C(Nc1cnn2ccc(N3CCC[C@@H]3c3cc(F)ccc3F)nc12)N1CC[C@H](O)C1` [Larotrectinib]: the inhibition at 10 µM in data set [1] (setting [3]) is 21.1%.
As to `COc1cc2nccc(Oc3ccc(NC(=O)NC4CC4)c(Cl)c3)c2cc1C(N)=O` [Lenvatinib], the inhibition at 10 µM in data set [1] (setting [3]) was 87.7%.
The same measure, in the same setting: next, `C[C@H]1Oc2cc(cnc2N)-c2c(nn(C)c2C#N)CN(C)C(=O)c2ccc(F)cc21` [Lorlatinib]: 61.8%; `CO[C@@H]1[C@H](N(C)C(=O)c2ccccc2)C[C@H]2O[C@]1(C)n1c3ccccc3c3c4c(c5c6ccccc6n2c5c31)C(=O)NC4` [Midostaurin]: 50%.
Same read-out and setting: next, `CCOc1cc2ncc(C#N)c(Nc3ccc(OCc4ccccn4)c(Cl)c3)c2cc1NC(=O)/C=C/CN(C)C` [Neratinib]: 90.9%; `COC(=O)c1ccc2c(c1)NC(=O)/C2=C(\Nc1ccc(N(C)C(=O)CN2CCN(C)CC2)cc1)c1ccccc1` [Nintedanib]: 95.3%.
On to `C=CC(=O)Nc1cccc(Oc2nc(Nc3ccc(N4CCN(C)CC4)cc3)nc3ccsc23)c1` [Olmutinib], for which the inhibition at 10 µM in data set [1] (setting [3]) came out at 97.7%.
Still for that read-out and setting: next, `C=CC(=O)Nc1cc(Nc2nccc(-c3cn(C)c4ccccc34)n2)c(OC)cc1N(C)CCN(C)C` [Osimertinib]: 94.1%.
The compound `Cc1ccc(Nc2nccc(N(C)c3ccc4c(C)n(C)nc4c3)n2)cc1S(N)(=O)=O` [Pazopanib] showed an inhibition at 10 µM in data set [1] (setting [3]) of 90.2%. Moreover, the IC50 in data set [2] was under 0.47 µM.
`CCN1C(=O)N(c2c(F)c(OC)cc(OC)c2F)Cc2cnc3[nH]c(CN4CCOCC4)cc3c21` [Pemigatinib]: the inhibition at 10 µM in data set [1] (setting [3]) is 80.1%.
Same read-out and setting: next, `FC(F)(F)c1ccc(CNc2ccc(Cc3c[nH]c4ncc(Cl)cc34)cn2)cn1` [Pexidartinib]: 75.6%.
As to `Cc1ccc(C(=O)Nc2ccc(CN3CCN(C)CC3)c(C(F)(F)F)c2)cc1C#Cc1cnc2cccnn12` [Ponatinib], the inhibition at 10 µM in data set [1] (pH 7.4) came out at 84.9%. Besides, the IC50 in data set [2] is under 10 µM.
Turning to `CO[C@]1(C(=O)N[C@@H](C)c2ccc(-n3cc(F)cn3)nc2)CC[C@H](c2nc(C)cc(Nc3cc(C)[nH]n3)n2)CC1` [Pralsetinib], in data set [1] (setting [3]), testing at 10 µM gave an inhibition of 94.5%.
Compound `Cc1cn(-c2cc(NC(=O)c3ccc(C)c(Nc4nccc(-c5cnccn5)n4)c3)cc(C(F)(F)F)c2)cn1` [Radotinib] returned an inhibition at 10 µM in data set [1] (setting [3]) of 73%.
Take `CCn1c(=O)c(-c2cc(NC(=O)Nc3ccccc3)c(F)cc2Br)cc2cnc(NC)cc21` [Ripretinib]: the inhibition at 10 µM in data set [1] (setting [3]) is 51.9%.
The compound `N#CC[C@H](C1CCCC1)n1cc(-c2ncnc3[nH]ccc23)cn1` [Ruxolitinib] had an inhibition at 10 µM in data set [1] (setting [3]) of 63%. In addition, the IC50 in data set [2] is under 10 µM.
Consider `COc1ccc(CN2C3CC2CN(c2ccc(-c4cc(OCC(C)(C)O)cn5ncc(C#N)c45)cn2)C3)cn1` [Selpercatinib], for which the inhibition at 10 µM in data set [1] (setting [3]) is 97.4%. In addition, in data set [2], the IC50 is 0.66 µM.
With `COc1cc2nccc(Oc3ccc(NC(=O)Nc4cc(C)on4)c(Cl)c3)c2cc1OC` [Tivozanib], the inhibition at 10 µM in data set [1] (setting [3]) was found to be 90.3%.
On to `C[C@@H]1CCN(C(=O)CC#N)C[C@@H]1N(C)c1ncnc2[nH]ccc12` [Tofacitinib], for which the inhibition at 10 µM in data set [1] (setting [3]) was determined as 90.4%. Besides, the IC50 in data set [2] was about 10 µM.
In the case of `CC(=O)Nc1cccc(-n2c(=O)n(C3CC3)c(=O)c3c(Nc4ccc(I)cc4F)n(C)c(=O)c(C)c32)c1` [Trametinib], the inhibition at 10 µM in data set [1] (setting [3]) was 96.1%. Moreover, the IC50 in data set [2] is 0.06 µM.
Turning to `Cc1cc(Nc2ncnc3ccc(NC4=NC(C)(C)CO4)cc23)ccc1Oc1ccn2ncnc2c1` [Tucatinib], in data set [1] (setting [3]), the inhibition at 10 µM is 96.3%.
Still for that read-out and setting: next, `CC[C@@H]1CN(C(=O)NCC(F)(F)F)C[C@@H]1c1cnc2cnc3[nH]ccc3n12` [Upadacitinib]: 77.2%.
In turn, `COc1cc2c(Nc3ccc(Br)cc3F)ncnc2cc1OCC1CCN(C)CC1` [Vandetanib] yielded an inhibition at 10 µM in data set [1] (setting [3]) of 99.5%. Besides, the IC50 in data set [2] was under 10 µM.
Compound `CCCS(=O)(=O)Nc1ccc(F)c(C(=O)c2c[nH]c3ncc(-c4ccc(Cl)cc4)cc23)c1F` [Vemurafenib] registered an inhibition at 10 µM in data set [1] (setting [3]) of 34.1%.
With `C=CC(=O)N1CCC([C@@H]2CCNc3c(C(N)=O)c(-c4ccc(Oc5ccccc5)cc4)nn32)CC1` [Zanubrutinib], the inhibition at 10 µM in data set [1] (setting [3]) was 94.5%.

One may read the inhibition as the drop in the measured response relative to a control, in per cent. Low values mean a response near the control, high ones a response far below the control. In general, IC50 refers to the concentration at which inhibition is half-maximal.
